From patent US20240270821A1, “GIP/GLP1/GCG TRI-RECEPTOR AGONISTS AND USES THEREOF” (priority 2023, published 2024)
Read-outs that look alike come from different tables or passages of the source. Starred links: 1 amine or outer side, 2 acyl side, 3 side chain; linkers in the order of their positions; H or OH if unused. Non-standard residues stand in square brackets, D forms with d. Groups on a side chain read outwards from the residue. No end group written: not given here. *: point of attachment. C20 diacid = O=C(O)CCCCCCCCCCCCCCCCCCC(=O)*; C18 diacid = O=C(O)CCCCCCCCCCCCCCCCC(=O)*; γGlu = O=C(O)[C@H](CCC(=O)[*:2])N[*:1]; αMe4Pal = C[C@](N)(Cc1ccncc1)C(=O)O; αMeY = C[C@](N)(Cc1ccc(O)cc1)C(=O)O; 4Pal = N[C@@H](Cc1ccncc1)C(=O)O; αMeL = CC(C)C[C@](C)(N)C(=O)O; Orn = NCCC[C@H](N)C(=O)O; AEEA = NCCOCCOCC(=O)O; Aib = CC(C)(N)C(=O)O

How the values were obtained:
Assay type in all cases: cell-based
hGLP-1R [1] = molecular target: T1, hGLP-1R (Homo sapiens, UniProt P43220); experiment: Functional cAMP activation in the presence of 0.1% casein (no HSA);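 note: intracellular cAMP rise after 30 min at 37 °C read by HTRF, normalized between buffer only (0%) and maximal control ligand (100%), four-parameter variable-slope fit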
hGIPR [2] = molecular target: T2, hGIPR (Homo sapiens, UniProt P48546); experiment: as above;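 note: intracellular cAMP rise after 30 min at 37 °C read by HTRF against a standard curve, scaled between buffer alone (0%) and top control ligand concentration (100%), four-parameter fit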
T2 sequence (P48546 22-466): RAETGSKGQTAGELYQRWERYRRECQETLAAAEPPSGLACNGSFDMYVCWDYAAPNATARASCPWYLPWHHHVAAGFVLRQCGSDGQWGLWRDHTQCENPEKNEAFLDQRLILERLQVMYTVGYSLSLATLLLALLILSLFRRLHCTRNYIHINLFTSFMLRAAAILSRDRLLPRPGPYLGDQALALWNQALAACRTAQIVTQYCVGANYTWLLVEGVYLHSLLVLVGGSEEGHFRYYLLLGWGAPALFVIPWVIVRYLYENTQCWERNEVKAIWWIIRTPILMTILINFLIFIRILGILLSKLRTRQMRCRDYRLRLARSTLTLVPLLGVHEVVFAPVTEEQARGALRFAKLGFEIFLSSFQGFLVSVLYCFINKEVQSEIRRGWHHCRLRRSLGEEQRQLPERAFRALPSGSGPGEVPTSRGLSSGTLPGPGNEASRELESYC

hGIPR [3] = molecular target: T2, hGIPR; experiment: Functional cAMP activity in the presence of 1% HSA
hGLP-1R [4] = molecular target: T1, hGLP-1R; experiment: Functional cAMP activity in the presence of 1% HSA
human GLP1-R = human GLP1-R (Homo sapiens, UniProt P43220); experiment: GLP1-R internalization assay in HEK293 cells; conditions: for Internalization % TOP: normalized to maximum concentration of GLP-1 (100%)
hGcgR = hGcgR (Homo sapiens, UniProt P47871); experiment: Functional cAMP activation in the presence of 0.1% casein (no HSA);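 note: intracellular cAMP rise after 30 min at 37 °C, read by HTRF against a cAMP standard curve, scaled from buffer only (0%) to maximal control ligand response (100%)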
human GcgR = human GcgR (Homo sapiens, UniProt P47871); experiment: Functional cAMP activity in the presence of 1% HSA
[5] = in the presence of 0.1% casein (no HSA), geometric mean, read-out: Relative cAMP EC50, hGLP-1R
[6] = in the presence of 0.1% casein (no HSA), geometric mean, read-out: Relative cAMP EC50, hGIPR
[7] = read-out: cAMP Rel EC50, hGLP-1R
[8] = HEK293 cells expressing SNAP-GLP-1R, read-out: GLP1R Internalization EC50
[9] = in the presence of 0.1% casein (no HSA), geometric mean, read-out: Relative cAMP EC50, hGcgR

Chain of human GcgR (P47871 26-477): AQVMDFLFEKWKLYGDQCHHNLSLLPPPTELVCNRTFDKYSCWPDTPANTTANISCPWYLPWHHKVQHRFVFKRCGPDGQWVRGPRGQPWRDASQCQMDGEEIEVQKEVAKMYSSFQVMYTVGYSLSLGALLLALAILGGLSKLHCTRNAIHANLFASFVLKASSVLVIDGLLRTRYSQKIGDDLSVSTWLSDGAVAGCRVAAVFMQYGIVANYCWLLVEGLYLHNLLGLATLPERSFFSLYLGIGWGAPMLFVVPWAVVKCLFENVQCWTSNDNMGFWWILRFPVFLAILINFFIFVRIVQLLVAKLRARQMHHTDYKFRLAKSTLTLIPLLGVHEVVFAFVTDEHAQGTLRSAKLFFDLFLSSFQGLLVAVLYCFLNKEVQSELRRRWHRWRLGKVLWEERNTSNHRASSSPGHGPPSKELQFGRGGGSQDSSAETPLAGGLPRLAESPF
Chain of hGcgR (P47871 26-477): as above
T1 sequence (P43220 24-463): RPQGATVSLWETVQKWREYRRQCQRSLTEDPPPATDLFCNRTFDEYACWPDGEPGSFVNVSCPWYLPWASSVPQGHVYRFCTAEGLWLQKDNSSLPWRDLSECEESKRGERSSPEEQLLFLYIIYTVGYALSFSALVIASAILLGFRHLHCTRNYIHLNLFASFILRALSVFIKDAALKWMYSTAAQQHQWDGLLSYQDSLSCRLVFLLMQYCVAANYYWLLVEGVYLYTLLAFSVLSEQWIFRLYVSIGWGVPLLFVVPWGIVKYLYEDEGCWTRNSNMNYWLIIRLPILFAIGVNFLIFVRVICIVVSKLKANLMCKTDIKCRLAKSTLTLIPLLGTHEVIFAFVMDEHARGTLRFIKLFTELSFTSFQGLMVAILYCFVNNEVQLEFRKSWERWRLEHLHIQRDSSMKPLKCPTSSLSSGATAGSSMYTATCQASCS
Chain of human GLP1-R (P43220 24-463): as above

Compound	EC50 (hGLP-1R [1]; [5])	EC50 (hGIPR [2]; [6])	EC50 (hGIPR [3]; read-out: cAMP Rel EC50, hGIPR)	EC50 (hGLP-1R [4]; [7])	EC50 (human GLP1-R; [8])	Internalization % TOP (human GLP1-R)	EC50 (hGcgR; [9])	EC50 (human GcgR; read-out: cAMP Rel EC50, hGcgR)	EC50 (hGLP-1R [1])	EC50 (hGIPR [2])	EC50 (hGIPR [3])	EC50 (hGLP-1R [4])	EC50 (hGcgR)	EC50 (human GcgR)	EC50 (human GLP1-R)
H-Y[Aib]QGTFTSDFS[Orn][αMeL]LDKK([AEEA-AEEA-γGlu-C18 diacid])AQ[Aib]AFIEYLLE[Aib]GPSSGAPPPSGE-NH2 [Example 111]	5.06 nM	0.0888 nM	10.4 nM	878 nM	49.1 nM	46.4%	4.25 nM	1260 nM							
Y[Aib]QGTFTSDFS[Orn][αMeL]LDKK([AEEA-AEEA-γGlu-C18 diacid])AQ[Aib]AFIEYLLE[dA]GPSSG[4Pal]PPPSGS-NH2 [Example 254]	3.08 nM	0.121 nM	21.4 nM	265 nM	31.9 nM	47.8%	4.9 nM	767 nM							
H-Y[Aib]QGTFTSDFS[Orn][αMeL]LDKK([AEEA-γGlu-C18 diacid])AQ[Aib]AFIEYLLE[Aib]GPSSG[Aib]PPPSGS-NH2 [Example 239]	2.9 nM	0.0503 nM	12 nM	419 nM	72.6 nM	42.9%	2.14 nM	693 nM							
H-Y[Aib]QGTFTSDFS[Orn][αMeL]LDKK([AEEA-AEEA-γGlu-C18 diacid])AQ[Aib]AFIEYLLE[Aib]GESSGAPPPSGS-NH2 [Example 179]	5.81 nM	0.104 nM	21.3 nM	904 nM	63.4 nM	48.4%	4.82 nM	1440 nM							
H-Y[Aib]QGTFTSDFSK[αMeL]LDKK([AEEA-γGlu-C20 diacid])AQ[Aib]AFIEYLLE[Aib]GPSSGAPPPSSG-NH2 [Example 44]					51.5 nM	65%			1.66 nM	0.116 nM	35.9 nM	591 nM	2.46 nM	1050 nM	
H-Y[Aib]QGTFTSDFS[Orn][αMeL]LDKK([AEEA-γGlu-C18 diacid])AQ[Aib]AFIEWLLEGGTSSGAPPPSGS-NH2 [Example 176]	2.92 nM	0.212 nM	40.7 nM	389 nM	103 nM	48%	4.1 nM	461 nM							
H-Y[Aib]QGTFTSDFSK[αMeL]LDKK([AEEA-γGlu-C20 diacid])AQQAFIEYLLA[Aib]GPSSGEPPPSEG-NH2 [Example 19]						72.6%			3.96 nM	0.228 nM	66.2 nM	1310 nM	2.35 nM	1010 nM	52.4 nM
H-Y[Aib]QGTFTSDFS[Orn][αMeL]LDKK([AEEA-γGlu-C18 diacid])AQ[Aib]AFIEYLIE[Aib]GESSGAPPPSGE-NH2 [Example 219]	0.835 nM	0.119 nM	23.3 nM	221 nM	48 nM	37.2%	7.77 nM	1870 nM							
Y[Aib]QGTFTSD[4Pal]SQ[αMeL]LD[Orn]K([γGlu-γGlu-C18 diacid])AQ[αMe4Pal]QFIE[αMeY]LIEGGPSSGEPPPSGSEE-NH2 [Example 1026]	1.77 nM	0.308 nM	61.3 nM	299 nM	47.4 nM	80%	6.32 nM	2080 nM							
H-Y[Aib]QGTFTSDFS[Orn][αMeL]LDKK([AEEA-AEEA-γGlu-C18 diacid])AQ[Aib]AFIEYLLE[Aib]GHSSGAPPPSGS-NH2 [Example 181]	4.39 nM	0.133 nM	12.7 nM	365 nM	116 nM	47.5%	6.25 nM	772 nM							
H-Y[Aib]QGTFTSDFS[Orn][αMeL]LDKK([AEEA-γGlu-C18 diacid])AQ[Aib]AFIEWLLEGGTSSGAPPPSGE-NH2 [Example 175]	4 nM	0.218 nM	29.6 nM	386 nM	116 nM	49.2%	4.92 nM	579 nM							
H-Y[Aib]QGTFTSDFS[Orn][αMeL]LDKK([AEEA-γGlu-C18 diacid])AQ[αMe4Pal]AFIEYLIE[Aib]GESSGAPPPSGE-NH2 [Example 228]	1.52 nM	0.147 nM	37.8 nM	311 nM	39 nM	35%	1.38 nM	322 nM							
H-Y[Aib]QGTFTSDFS[Orn][αMeL]LDKK([AEEA-γGlu-γGlu-C18 diacid])AQ[Aib]AFIEYLLE[Aib]GPSSGAPPPSG[4Pal]-NH2 [Example 279]	5.77 nM	0.105 nM	11.6 nM	367 nM	115 nM	37.5%	5.06 nM	427 nM							
H-Y[Aib]QGTFTSDFSK[αMeL]LDKK([AEEA-γGlu-C20 diacid])AQ[Aib]AFIEYLLAGGPSSGEPPPGEG-NH2 [Example 31]	2.16 nM	0.249 nM	63.6 nM	737 nM	91.9 nM	67.4%	8.42 nM	1750 nM							
H-Y[Aib]QGTFTSDFSK[αMeL]LDKK([AEEA-γGlu-C18 diacid])AQ[Aib]AFIEYLIE[Aib]GESSGAPPPSGE-NH2 [Example 217]	0.667 nM	0.0897 nM	15 nM	130 nM	27.6 nM	58.2%	5.11 nM	1570 nM							
H-Y[Aib]QGTFTSDFS[Orn][αMeL]LDKK([AEEA-γGlu-C18 diacid])AQ[Aib]AFIEYLLEGGHSSGAPPPGGS-NH2 [Example 162]	4.72 nM	0.222 nM	37.5 nM	786 nM	48.8 nM	44.8%	4.72 nM	558 nM							
H-Y[Aib]QGTFTSDFS[Orn][αMeL]LDKK([AEEA-AEEA-γGlu-C18 diacid])AQ[Aib]AFIEYLLE[dA]GPSSGHPPPSGS-NH2 [Example 253]	2.2 nM	0.115 nM	26.6 nM	355 nM	81.6 nM	55.2%	6.62 nM	963 nM							
H-Y[Aib]QGTFTSDFS[Orn][αMeL]LDKK([AEEA-γGlu-C18 diacid])AQ[Aib]AFIEWLLEGGPSSGAPPPSGS-NH2 [Example 168]	2.44 nM	0.233 nM	31.9 nM	281 nM	74.8 nM	38.7%	5.54 nM	1270 nM							
CC[C@H](C)[C@H](NC(=O)[C@H](Cc1ccccc1)NC(=O)[C@H](C)NC(=O)[C@](C)(Cc1ccncc1)NC(=O)[C@H](CCC(N)=O)NC(=O)[C@H](C)NC(=O)[C@H](CCCCNC(=O)COCCOCCNC(=O)CC[C@H](NC(=O)CCCCCCCCCCCCCCCCC(=O)O)C(=O)O)NC(=O)[C@H](CCCCN)NC(=O)[C@H](CC(=O)O)NC(=O)[C@H](CC(C)C)NC(=O)[C@](C)(CC(C)C)NC(=O)[C@H](CCCNC(=N)N)NC(=O)[C@H](CO)NC(=O)[C@H](Cc1ccccc1)NC(=O)[C@H](CC(=O)O)NC(=O)[C@H](CO)NC(=O)[C@@H](NC(=O)[C@H](Cc1ccccc1)NC(=O)[C@@H](NC(=O)CNC(=O)[C@H](CCC(N)=O)NC(=O)C(C)(C)NC(=O)[C@@H](N)Cc1ccc(O)cc1)[C@@H](C)O)[C@@H](C)O)C(=O)N[C@@H](CCC(=O)O)C(=O)N[C@@H](Cc1ccc(O)cc1)C(=O)N[C@@H](CC(C)C)C(=O)N[C@H](C(=O)N[C@@H](CCC(=O)O)C(=O)NC(C)(C)C(=O)NCC(=O)N[C@@H](CCC(=O)O)C(=O)N[C@@H](CO)C(=O)N[C@@H](CO)C(=O)NCC(=O)N[C@@H](C)C(=O)N1CCC[C@H]1C(=O)N1CCC[C@H]1C(=O)N1CCC[C@H]1C(=O)N[C@@H](CO)C(=O)NCC(=O)N[C@@H](CO)C(N)=O)[C@@H](C)CC [Example 230]						31.2%			0.937 nM	0.0909 nM	21.6 nM	199 nM	1.61 nM	388 nM	34.4 nM
H-Y[Aib]QGTFTSDFS[Orn][αMeL]LDKK([AEEA-γGlu-C18 diacid])AQ[Aib]AFIEYLLAGGPSSGEPPPSGE-NH2 [Example 97]	3.23 nM	0.176 nM	23.9 nM	605 nM	51.9 nM	50.7%	6.73 nM	1270 nM							
